Experimental data taken from patent publication US20190233884A1 (University of Southern California, priority 2016, published 2019).

System: patients with refractory metastatic colorectal cancer (mCRC)
Test: PFS, OS and disease control in the training (evaluation) cohort of refractory mCRC patients receiving TAS-102 (n=52, Japan), by baseline characteristics, SNP genotype and toxicity
Type: in vivo, human
Procedure: All patients underwent the treatment in salvage-line setting. […]
Genomic DNA was extracted from peripheral whole blood in patients of all cohorts using the QIAmp Kit (Qiagen, Valencia, Calif., USA) according to the manufacturer's protocol (www.qiagen.com). The candidate SNPs were genotyped using PCR-based direct DNA sequence analysis by ABI 3100A Capillary Genetic Analyzer and Sequencing Scanner v1.0 (Applied Biosystems). Amplification of extracted DNA was carried out using both forward and reverse primers for each gene polymorphism as shown in Table 1. […] The investigators analyzing SNPs were blinded to the clinical data of the study patients.
The primary endpoint in this study was progression-free survival (PFS), and the secondary endpoints were overall survival (OS) and disease control rate (DCR). PFS was calculated from the date of starting treatment to the first observation of disease progression or death from any cause. If a patient had no disease progression or death, PFS was censored at the date of last follow up. OS was calculated from the date of starting treatment until the date of death from any cause or the date of the last follow-up, at which point OS was censored. The disease control rate (DCR) was defined as the proportion of patients who achieved a stable disease (SD) or […] according to RECISTv1.1. Chi-square test was used to examine the difference in baseline patient characteristics among the three cohorts. Allelic distribution of all SNPs by ethnicity for deviation from Hardy-Weinberg equilibrium and the allelic frequencies of SNPs were tested using the Chi-square tests with one degree of freedom. The associations between candidate SNPs and disease control, and toxicities were examined using contingency tables and Fisher's exact test. The associations of SNPs with PFS and OS were analysed using Kaplan-Meier curves and the log-rank test. Because the true mode of inheritance of candidate SNPs was not established yet, a codominant or dominant genetic model if appropriate was considered.
All patients underwent the treatment in salvage-line setting. […] In all patients, adverse events were graded according to the Common Terminology Criteria for Adverse Events, version 4.0. […]
Genomic DNA was extracted from peripheral whole blood in patients of all cohorts using the QIAmp Kit (Qiagen, Valencia, Calif., USA) according to the manufacturer's protocol (www.qiagen.com). The candidate SNPs were tested using PCR-based direct DNA sequence analysis by ABI 3100A Capillary Genetic Analyzer and Sequencing Scanner v1.0 (Applied Biosystems). […] The investigators analyzing SNPs were blinded to the clinical data.
The primary endpoint in this study was progression-free survival (PFS), and the secondary endpoints were overall survival (OS) and disease control rate (DCR).

[1] = training cohort, OCT2 rs316019 C/C
[2] = training cohort, hENT1 + OCT2/MATE1 classification: Fair
[3] = training cohort, hENT1rs750370_19 Excellent
[4] = training cohort, hENT1rs750370_19 Faire
[5] = training cohort, hENT1rs750370_19 Faire vs Poor
[6] = training cohort, hENT1rs750370_19 Good
[7] = training cohort, hENT1rs750370_19 Good and Excellent combined
[8] = training cohort, hENT1rs750370_19 Good and Excellent combined vs Poor
[9] = training cohort, hENT1rs750370_19 Poor
[10] = training cohort, hENT1 rs760370, multivariate adjusted for liver metastases and adjuvant history
[11] = training cohort, hENT1 rs760370 A/A
[12] = training cohort, hENT1 rs760370 A/G
[13] = training cohort, hENT1 rs760370 A/G and G/G combined
[14] = training cohort, hENT1 rs760370 A/G and G/G combined vs A/A
[15] = training cohort, hENT1 rs760370 G/G
[16] = training cohort, hENT1 rs760370 any G allele
[17] = training cohort, hENT1 rs760370 any G vs A/A, univariate
[18] = training cohort, hENT1 rs9394992 C/C
[19] = training cohort, hENT1 rs9394992 C/T
[20] = training cohort, hENT1 rs9394992 C/T and T/T combined
[21] = training cohort, hENT1 rs9394992 C/T and T/T combined vs C/C
[22] = training cohort, hENT1 rs9394992 T/T
[23] = training cohort, hENT1 rs9394992 any T allele
[24] = training cohort, hENT1 rs9394992 any T vs C/C, univariate
[25] = training/evaluation cohort, grade 3≤ neutropenia vs less than grade 3, univariate
[26] = training/evaluation cohort, neutropenia less than grade 3 (n=32)
[27] = training/evaluation cohort, patients with grade 3≤ neutropenia (n=20)
[28] = whole training (evaluation) cohort

Trifluridine/tipiracil [TAS-102]
Progression-free Survival HR (95% CI) univariate (training cohort, OCT2 rs316019 C/A and A/A combined vs C/C): 0.74 (0.35, 1.52)
Disease Control Rate PD [1]: 24 (73%)
Disease Control Rate SD [1]: 9 (27%)
Overall Survival Median, months (95% CI) [1]: 8.1 (5.7, 12.4) months
Progression-free Survival Median, months (95% CI) [1]: 2.5 (2.1, 3.4) months
Progression-free Survival HR (95% CI) multivariate (training cohort, adjusted for liver metastasis and adjuvant history, CNT1 rs2290272 A/A genotype): 1.01 (0.38, 2.68)
Progression-free Survival HR (95% CI) multivariate (training cohort, adjusted for liver metastasis and adjuvant history, CNT1 rs2290272 G/A genotype): 0.64 (0.29, 1.39)
Progression-free Survival HR (95% CI) multivariate (training cohort, adjusted for liver metastasis and adjuvant history, CNT1 rs2290272 any A allele): 0.71 (0.33, 1.50)
Progression-free Survival HR (95% CI) multivariate (training cohort, adjusted for liver metastasis and adjuvant history, MATE2 rs16960360 A/C or C/C genotype): 1.07 (0.55, 2.07)
Progression-free Survival HR (95% CI) multivariate (training cohort, adjusted for liver metastasis and adjuvant history, OCT2 rs316000 A/G or G/G genotype): 1.11 (0.48, 2.56)
Progression-free Survival HR (95% CI) multivariate (training cohort, adjusted for liver metastasis and adjuvant history, TK1 rs1065769 C/T or T/T genotype): 1.13 (0.58, 2.18)
OS (training cohort, grade 2< neutropenia (so in the source)): 8.3 months
HR for OS (training cohort, grade 2< vs grade 2> neutropenia): 0.41
OS (training cohort, grade 2> neutropenia (so in the source)): 4.4 months
OS [2]: 7.2
PFS [2]: 2.1 months
PFS (training cohort, hENT1 + OCT2/MATE1 classification: Good or Excellent): 3.5 months
OS (training cohort, hENT1 + OCT2/MATE1 classification: Good or Excellent (third value as printed)): 3.4
OS (training cohort, hENT1 + OCT2/MATE1 classification: Poor (first value)): 8.7
Disease Control Rate PD [3]: 10 (50%)
Disease Control Rate SD [3]: 10 (50%)
Overall Survival Median, months (95% CI) [4]: 7.2 (2.7, 14.8) months
Progression-free Survival Median, months (95% CI) [4]: 2.1 (1.6, 4.1) months
Overall Survival HR (95% CI) multivariate [5]: 0.37 (0.11, 1.23)
Overall Survival HR (95% CI) univariate [5]: 0.37 (0.12, 1.16)
Progression-free Survival HR (95% CI) multivariate [5]: 0.48 (0.20, 1.16)
Progression-free Survival HR (95% CI) univariate [5]: 0.42 (0.17, 1.03)
Disease Control Rate PD [6]: 2 (67%)
Disease Control Rate SD [6]: 1 (33%)
Overall Survival Median, months (95% CI) [7]: 8.7 (8.1, 15.6) months
Progression-free Survival Median, months (95% CI) [7]: 3.5 (2.5, 4.6) months
Overall Survival HR (95% CI) multivariate [8]: 0.08 (0.02, 0.41)
Overall Survival HR (95% CI) univariate [8]: 0.14 (0.04, 0.48)
Progression-free Survival HR (95% CI) multivariate [8]: 0.28 (0.11, 0.55)
Progression-free Survival HR (95% CI) univariate [8]: 0.26 (0.11, 0.59)
Disease Control Rate PD [9]: 9 (100%)
Disease Control Rate SD [9]: 0
Overall Survival Median, months (95% CI) [9]: 3.4 (2.7, 6.5) months
Progression-free Survival Median, months (95% CI) [9]: 1.6 (0.9, 2.9) months
PFS (training cohort, hENT1 rs760370 + OCT2 rs316019/MATE1 rs2289669 classification: Poor): 1.6 months
HR for OS [10]: 0.27
HR for PFS [10]: 0.44
Disease Control Rate PD [11]: 19 (83%)
Disease Control Rate SD [11]: 4 (17%)
OS [11]: 5.3 months
Overall Survival Median, months (95% CI) [11]: 5.3 (3.1, 12.4) months
PFS [11]: 2.1 months
Progression-free Survival Median, months (95% CI) [11]: 2.1 (1.6, 2.9) months
Disease Control Rate PD [12]: 11 (55%)
Disease Control Rate SD [12]: 9 (45%)
Overall Survival Median, months (95% CI) [13]: 8.7 (8.1, 15.6+) months
Progression-free Survival Median, months (95% CI) [13]: 3.5 (2.5, 4.6) months
Overall Survival HR (95% CI) multivariate [14]: 0.17 (0.05, 0.63)
Overall Survival HR (95% CI) univariate [14]: 0.27 (0.10, 0.70)
Progression-free Survival HR (95% CI) multivariate [14]: 0.44 (0.22, 0.89)
Progression-free Survival HR (95% CI) univariate [14]: 0.44 (0.23, 0.83)
Disease Control Rate PD [15]: 1 (33%)
Disease Control Rate SD [15]: 2 (67%)
OS [16]: 8.7 months
PFS [16]: 3.5 months
HR for OS [17]: 0.27
HR for PFS [17]: 0.44
HR for PFS (training cohort, hENT1 rs9394992, multivariate adjusted for liver metastases and adjuvant history): 0.44
Disease Control Rate PD [18]: 15 (83%)
Disease Control Rate SD [18]: 3 (17%)
OS [18]: 4.4 months
Overall Survival Median, months (95% CI) [18]: 4.4 (2.7, 7.2) months
PFS [18]: 1.9 months
Progression-free Survival Median, months (95% CI) [18]: 1.9 (1.6, 2.7) months
Disease Control Rate PD [19]: 14 (64%)
Disease Control Rate SD [19]: 8 (36%)
Overall Survival Median, months (95% CI) [20]: 8.7 (8.1, 15.6+) months
Progression-free Survival Median, months (95% CI) [20]: 3.4 (2.3, 4.4) months
Overall Survival HR (95% CI) multivariate [21]: 0.20 (0.08, 0.51)
Overall Survival HR (95% CI) univariate [21]: 0.21 (0.08, 0.51)
Progression-free Survival HR (95% CI) multivariate [21]: 0.44 (0.23, 0.86)
Progression-free Survival HR (95% CI) univariate [21]: 0.48 (0.25, 0.91)
Disease Control Rate PD [22]: 2 (33%)
Disease Control Rate SD [22]: 4 (67%)
OS [23]: 8.7 months
PFS [23]: 3.4 months
HR for OS [24]: 0.21
HR for PFS [24]: 0.48
HR for OS [25]: 0.59
HR for PFS [25]: 0.68
OS [26]: 6.3 months
PFS [26]: 2.1 months
OS [27]: 8.3 months
PFS [27]: 3.4 months
Median OS [28]: 8.0 months
Median PFS [28]: 2.6 months
